Values joined by “and” are separate entries in the source; they are usually repeats but may differ in a detail not shown here. Equal values may be shown once.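 Cultured in 96-well plates, cells were exposed to test compound for 48 hours across five concentrations. Here, GI50 denotes the concentration required for 50% inhibition of growth. TGI: total growth inhibition.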
Legend:
Test in all cases: DTP human tumour cell line panel, 48 h
[1] = test system: MOLT-4 leukemia
[2] = test system: RXF 393 renal
[3] = test system: LOX IMVI melanoma
[4] = test system: SF-268 CNS
[5] = test system: SK-MEL-2 melanoma
[6] = test system: MALME-3M melanoma
[7] = test system: ACHN renal
[8] = test system: OVCAR-8 ovarian
[9] = test system: UACC-62 melanoma
[10] = test system: OVCAR-4 ovarian

SMILES | GI50 [1] [µM] | TGI [1] | GI50 [2] | TGI [2] | GI50 [3] | TGI [3] | GI50 [4] [µM] | TGI [4] | GI50 [5] [µM] | TGI [5] | GI50 [6] [µM] | TGI [6] | GI50 [7] [µM] | TGI [7] | GI50 [8] | TGI [8] | GI50 [9] [µM] | TGI [9] | GI50 [10] [µM] | TGI [10]
O=c1ncc(I)c[nH]1 | > 100 | > 100 µM | > 100 µM | > 100 µM | > 100 µM | > 100 µM | > 100 | > 100 µM | > 100 | > 100 µM | > 100 | > 100 µM | > 100 | > 100 µM | > 100 µM | > 100 µM | > 100 | > 100 µM | > 100 | > 100 µM
CCC1CCC2C3CC=C4CC(OC(C)=O)C(N)CC4(C)C3CCC12C (configuration not stated) | – | 8.01 µM | – | 3.68 µM | – | 4.12 µM | – | 9.08 µM | – | 8.32 µM | – | 8.33 µM | – | 17.6 µM | – | 6.75 µM | – | 9.32 µM | – | 18 µM
C[C@@]1([C@H](OC(=O)c2cccc3ccccc23)C(N)=O)CO1 | 0.187 | > 100 µM | 4.91 µM | > 21.3 µM | 0.316 µM | 1.62 µM | 4.62 | > 43 µM | 1.12 | 7.09 µM | 3.18 | 11.2 µM | 0.396 | 2.2 µM | 0.594 µM | 22.7 µM | 0.452 | 2.24 µM | 4.66 | > 76.6 µM
CC1OC(OC23C(=O)CC(C)(O)CC2(O)C=CC2=C3C(=O)c3ccc(C4CC(OC5CCC(OC6CC(O)C(O)C(C)O6)C(C)O5)C(O)C(C)O4)c(O)c3C2=O)CCC1O (configuration not stated) | – | > 100 µM | 13.8 µM and 5.87 µM | 26.9 µM and 19.2 µM | 13.1 µM and 6.26 µM | 27.5 µM and 19.7 µM | – | 31.4 µM and 31.2 µM | – | 31.2 µM and 30.5 µM | – | 8.48 µM and 3.49 µM | – | 31.4 µM and 30.8 µM | 16.5 µM and 5.32 µM | 30.1 µM and 17.6 µM | – | 30 µM and 27.1 µM | – | 33.6 µM and 30 µM
CS(=O)(=O)OCCCCOS(C)(=O)=O | – | 233 µM and 992 µM | 523 µM | 223 µM and > 1000 µM | 5.96 µM | 248 µM and > 1000 µM | 424 | 223 µM and > 1000 µM | > 1000 | 250 µM and > 1000 µM | > 1000 | 250 µM and > 1000 µM | 354 | 250 µM and > 1000 µM | > 873 µM | 250 µM and > 1000 µM | 472 | 250 µM and > 1000 µM | > 1000 | 223 µM and > 1000 µM
C=CCNC(=O)ON1C(=O)CCC1=O | – | > 100 µM | – | > 100 µM | – | > 100 µM | – | > 100 µM | – | > 100 µM | – | > 100 µM | – | > 100 µM | – | > 100 µM | – | > 100 µM | – | > 100 µM
S=P(C1CCCCC1)(C1CCCCC1)C(c1cccnc1)N1CCCC1 (configuration not stated) | – | 42.7 µM | – | 33.4 µM | – | 23.6 µM | – | 38.4 µM | – | 48.7 µM | – | 39.9 µM | – | 34.7 µM | – | 51.7 µM | – | 52.5 µM | – | 55.7 µM
CO[C@H](C(=O)O[C@H]1C(=O)N2CCC3CCC1C32C)c1ccccc1 (some centres not stated) | – | > 100 µM | – | > 100 µM | – | > 100 µM | – | > 100 µM | – | > 100 µM | – | > 100 µM | – | > 100 µM | – | > 100 µM | – | > 100 µM | – | > 100 µM
CCCCCCCCCCCCCCCCCc1cc(Cl)nc(Cl)n1 | – | > 100 µM | – | > 100 µM | – | > 100 µM | – | > 100 µM | – | > 100 µM | – | > 100 µM | – | > 100 µM | – | > 100 µM | – | > 100 µM | – | > 100 µM
CCN(CC)c1ccc(CNc2cc(C)nc3ccc(OC)cc23)cc1 | 3.16 | 9.69 µM | 2.02 µM | 3.87 µM | 1.67 µM | 3.47 µM | 4.17 | 16.1 µM | 1.83 | 3.56 µM | 1.8 | 3.43 µM | 2.63 | 7.17 µM | 4.05 µM | 15.9 µM | 1.72 | 3.67 µM | 5 | 16.5 µM
COc1ccc2nc(-c3ccc(Cl)cc3)cc(-c3nnc(SCC(=O)Nc4ccc(/C(C)=N\O)cc4)o3)c2c1 | 2.18 | > 50 µM | 1.51 µM | 5.97 µM | 1.76 µM | 6.92 µM | 1.44 | 5.06 µM | 2.46 | 9.77 µM | 1.28 | 3.97 µM | 1.85 | 8.04 µM | 1.15 µM | 2.78 µM | 2.89 | 9.93 µM | 0.904 | 1.84 µM
Cc1ccccc1NC(=O)N/C(N)=N/c1nc(C)c(C)s1 | 0.467 | > 100 µM | 0.187 µM | 0.907 µM | 0.444 µM | > 100 µM | 15.9 | > 100 µM | 0.61 | > 100 µM | 3.54 | > 100 µM | 0.7 | > 57 µM | 0.512 µM | > 79.6 µM | 0.179 | > 100 µM | 48 | > 100 µM
COc1ccccc1CN=C1NC(=O)/C(=C/c2ccc3ncccc3c2)S1 | 8.17 | > 19 µM | 8.75 µM | > 25 µM | 7.38 µM | > 25 µM | 7.89 | > 25 µM | 10.4 | > 25 µM | > 25 | > 25 µM | 7.49 | > 25 µM | 8.17 µM | > 25 µM | 8.61 | > 25 µM | 8.88 | > 25 µM
Oc1ccccc1/C=N/Nc1nc2ccccc2s1 | 4.4 | > 100 µM | 13.7 µM | 39 µM | 4.3 µM | > 100 µM | 3.8 | > 100 µM | 8.74 | > 100 µM | 30 | > 100 µM | 6.14 | > 100 µM | 12 µM | > 100 µM | 8.97 | > 100 µM | 2.31 | > 100 µM
C=C(C)[C@@H]1CC[C@]2(C(=O)N3CCN(C)CC3)CC[C@]3(C)[C@H](CC[C@@H]4[C@@]5(C)C/C(=C/c6ccncc6)[C@H](O)C(C)(C)[C@@H]5CC[C@]43C)[C@@H]12 | 2.36 | 11 µM | 2.89 µM | 10.5 µM | 4.01 µM | 17.3 µM | 9.05 | 57.6 µM | 8.41 | 26.2 µM | 2.08 | 6.07 µM | 6.6 | > 100 µM | 7.68 µM | 30.7 µM | 10.2 | 27.9 µM | 7.08 | > 100 µM
COc1cc(/C=C/C(=O)c2ccc(F)cc2)ccc1OCCCCOc1cc2c(cc1OC)C(=O)N1CCCC1C=N2 (configuration not stated) | 0.317 | 2.18 µM | 1.07 µM | 9.21 µM | 0.472 µM | 1.11 µM | 1.03 | 12.5 µM | 1.33 | 12.8 µM | 0.835 | 18.3 µM | 1.07 | > 20.5 µM | 1.55 µM | > 20.2 µM | 0.777 | 11.4 µM | 2.99 | > 23.9 µM
C/C(=N\N)C(CN1CCCCC1)C(c1ccccc1)c1c(O)c2ccccc2oc1=O (configuration not stated) | – | > 100 µM | – | > 100 µM | – | > 31.6 µM | – | > 100 µM | – | > 100 µM | – | > 100 µM | – | > 100 µM | – | > 100 µM | – | > 100 µM | – | > 100 µM

From PubChem BioAssay (NCI)
